# Experimental data reported in PMC5487684, “Safety, Pharmacokinetics, and Antiviral Activity of a Novel HIV Antiviral, ABX464, in Treatment-Naive HIV-Infected Subjects in a Phase 2 Randomized, Controlled Study” (Antimicrobial Agents and Chemotherapy, 2017).
# “Also recorded” adds a separate entry of the source. Read-outs that look alike come from different tables or passages of the source.
# Legend:
# HIV replication in PBMCs = test system: HIV replication in PBMCs; set-up: method as in PMID 25889234; settings: in vitro; cited from earlier work
# HIV [1] = test system: HIV; set-up: method as in PMID 25889234; settings: cited from earlier work
# [2] = test system: HIV replication in macrophages; set-up: method as in PMID 25889234; settings: in vitro; cited from earlier work
# [3] = cited from earlier work
# HIV [4] = test system: HIV; set-up: method as in PMID 25889234; settings: human PBMCs, treatment for at least 24 weeks; cited from earlier work
# [5] = Plasma pharmacokinetics of ABX464 and ABX464-NGlc in HIV-infected subjects; format: in vivo, human; settings: for AUC(0-inf) / Cmax / half-life / Tmax: human, plasma, po
# Description: (§1) Plasma samples were analyzed for ABX464 and ABX464-NGlc using validated bioanalytical methods by Atlanbio (Saint Nazaire, France) according to good laboratory practices. Pharmacokinetic parameters were calculated by noncompartmental analysis (NCA), using Phoenix WinNonlin software (Pharsight Corporation) running on a personal computer. On day 1, the following PK parameters were generated: Cmax, the time to Cmax (Tmax), lag time (tlag), elimination rate constant (kel), area under the concentration-time curve (AUC) from time zero to time t (AUC0–t), AUC from time zero to infinity (AUC0–∞), apparent clearance (CL/F), and apparent volume of distribution (V/F). On the other days of PK assessment, only Cmax, Tmax, tlag, kel, and AUC0–t were generated. The secondary analysis concerned pharmacodynamic (PD) activity, as expressed by CD4 and CD8 levels and viral load across time. The HIV viral load was analyzed in the prequalified individual local study center laboratories. CD4 and CD8 cell counts were also determined in the local study center laboratories. With respect to the viral load, changes in the log-transformed viral load values between 24 h postdose and predose were calculated on each day, and a comparison between each dose level and pooled placebo data was made. Moreover, the rate of success (defined as a decrease in the viral load value of at least 0.5 log) was evaluated for each treatment (including placebo) and compared between treatments.
# CD4 and CD8 cell counts = CD4 and CD8 cell counts in HIV-infected subjects; format: in vivo, human
# Description: as §1, with “The secondary analysis concerned pharmacodynamic (PD) activity, as expressed by CD4 and CD8 levels and viral load across time.” left out
# [6] = Non-infected, single oral 50mg (fasted), N 17
# [7] = Non-infected, single oral 50mg (fasted), N 23
structure (smiles),measurement,setting,value
FC(F)(F)Oc1ccc(Nc2ccc3cccc(Cl)c3n2)cc1 [ABX464],Antiviral effect on HIV replication in PBMCs,HIV replication in PBMCs,can inhibit HIV replication
same,Virus replication in two humanized mouse models of HIV infection,HIV [1],substantially reduced virus replication
same,Mice with an undetectable viral load,"HIV [1]; humanized mice, after 2 to 3 weeks of treatment",30%
same,Virus rebound after termination of therapy,"HIV [1]; vs cART-treated control animals, over 6 weeks after treatment termination",substantially lower virus rebound
same,Inhibition of HIV replication in macrophage culture,[2],can inhibit HIV replication
same,"AUC0-∞, GM",[3]; [6],43.93 ng·h/mL
same,"AUC0-∞, Mean",[3]; [6],51.74 ng·h/mL
same,"t1/2, GM",[3]; [6],0.83 h
same,"t1/2, Mean",[3]; [6],0.88 h
same,"Cmax, GM",[3]; [7],13.70 ng/mL
same,"Cmax, Mean",[3]; [7],17.70 ng/mL
same,"tmax, Mean",[3]; [7],1.5 h
same,Metabolism in human subjects,"[3]; healthy subjects, single ascending oral dose",rapidly and substantially metabolized into ABX464-N-glucuronide
same,Development of drug resistance in vitro,HIV [4],no development of resistance-inducing mutations; also recorded: did not induce any drug resistance
same,Concomitant food effect on relative bioavailability,[5]; fed vs fasted,substantial increase in the relative bioavailability
same,AUC(0-inf),"[5]; 50 mg, HIV-infected, single oral 50mg (fasted), N 7, read-out: AUC0-∞, GM",42.8 ng·h/mL
same,AUC(0-inf),"[5]; 50 mg, HIV-infected, single oral 50mg (fasted), N 7, read-out: AUC0-∞, Mean",55.4 ng·h/mL
same,Cmax,"[5]; 50 mg, HIV-infected, single oral 50mg (fasted), N 7, read-out: Cmax, GM",14.9 ng/mL
same,Cmax,"[5]; 50 mg, HIV-infected, single oral 50mg (fasted), N 7, read-out: Cmax, Mean",19.4 ng/mL
same,half-life,"[5]; 50 mg, HIV-infected, single oral 50mg (fasted), N 7, read-out: t1/2, GM (converted)",0.94 h
same,half-life,"[5]; 50 mg, HIV-infected, single oral 50mg (fasted), N 7, read-out: t1/2, Mean (converted)",0.96 h
same,Tmax,"[5]; 50 mg, HIV-infected, single oral 50mg (fasted), N 7, read-out: tmax, GM",1.8 h
same,Tmax,"[5]; 50 mg, HIV-infected, single oral 50mg (fasted), N 7, read-out: tmax, Mean",1.9 h
same,half-life,"[5]; HIV-infected subjects, oral, read-out: half-life (t1/2) (converted)",~1 h
same,CD4 profile,CD4 and CD8 cell counts; each ABX464 dose,no trend associated with product use or dose
same,Mean changes in the CD8 cell counts from baseline,"CD4 and CD8 cell counts; human, in vivo",did not show any particular trend
